Columns and labels:
Test in all cases: Test Example 1: foliar treatment, growth inhibition rate on 14th day
Assay type in all cases: in vivo
Conditions in all cases: active ingredient amount 31 g/ha, 14th day after application
corn (Zea mays L.) = test system: corn (Zea mays L.)
From the text: (§1) Upland field soil was put into a 1/300,000 hectare pot, and seeds of various plants were sown. When the respective plants reached predetermined leaf stage ((1) barnyardgrass (Echinochloa crus-[…].): 0.5 to 2.9 leaf stage, (2) crabgrass (Digitaria sanquinalis L.): 0.5 to 3.0 leaf stage, (3) green foxtail (Setaria viridis L.): 0.5 to 3.2 leaf stage, (4) wild oat (Avena fatua L.): 0.4 to 1.2 leaf stage, (5) italian ryegrass (Lolium multiflorum Lam.): 0.4 to 2.0 leaf stage, (6) redroot pigweed (Amaranthus retroflexus L.): cotyledon stage to 2.2 leaf stage, (7) rice (Oryza sativa L.): 0.2 to 2.7 leaf stage, (8) corn (Zea mays L.): 1.7 to 3.6 leaf stage, (9) wheat (Triticum aestivum L.): 1.3 to 2.3 leaf stage, (10) soybean (Glycine max Merr.); primary leaf stage), wettable powders or emulsifiable concentrates of the compounds of the present invention prepared in accordance with a conventional preparation method, were weighed so as to achieve the prescribed active ingredient amounts, and diluted with water in an amount corresponding to 1,000 liters per 1 hectare (containing 0.1 vol % of an agricultural spreader (surfactant WK manufactured by MARUWA BIOCHEMICAL Co., Ltd.)), and the spray solutions thus prepared were applied for foliar treatment by a small sprayer. On the 14th day after the application, the state of growth of the respective plants was visually observed, and the herbicidal effect was evaluated by a growth inhibition rate (%) of 0 (equivalent to the non-treated area) to 100 (complete kill).

[1] = test system: wild oat (Avena fatua L.)
From the text: as §1

[2] = test system: green foxtail (Setaria viridis L.)
From the text: as §1

[3] = test system: soybean (Glycine max Merr.)
From the text: as §1

[4] = test system: wheat (Triticum aestivum L.)
From the text: as §1

[5] = test system: redroot pigweed (Amaranthus retroflexus L.)
From the text: as §1

[6] = test system: italian ryegrass (Lolium multiflorum Lam.)
From the text: as §1

rice (Oryza sativa L.) = test system: rice (Oryza sativa L.)
From the text: as §1

[7] = test system: barnyardgrass (Echinochloa crus-qalli L.)
From the text: as §1

[8] = test system: crabgrass (Digitaria sanquinalis L.)
From the text: as §1

[9] = visual, 0 = non-treated, 100 = complete kill

Structure (SMILES) | Growth inhibition rate (%) Corn (corn (Zea mays L.)) [%] | Growth inhibition rate (%) Wild oat [1] [%] | Growth inhibition rate (%) Green foxtail [2] [%] | Growth inhibition rate (%) Soybean [3] [%] | Growth inhibition rate (%) Wheat [4] [%] | Growth inhibition rate (%) Redroot pigweed [5] [%] | Growth inhibition rate (%) Italian ryegrass [6] [%] | Growth inhibition rate (%) Rice (rice (Oryza sativa L.)) [%] | Growth inhibition rate (%) Barnyardgrass [7] [%] | Growth inhibition rate (%) Crabgrass [8] [%] | Growth inhibition rate (%) Corn (corn (Zea mays L.); [9]) [%] | Growth inhibition rate (%) Wild oat [1, 9] [%] | Growth inhibition rate (%) Green foxtail [2, 9] [%] | Growth inhibition rate (%) Soybean [3, 9] [%] | Growth inhibition rate (%) Wheat [4, 9] [%] | Growth inhibition rate (%) Redroot pigweed [5, 9] [%] | Growth inhibition rate (%) Italian ryegrass [6, 9] [%] | Growth inhibition rate (%) Rice (rice (Oryza sativa L.); [9]) [%] | Growth inhibition rate (%) Barnyardgrass [7, 9] [%] | Growth inhibition rate (%) Crabgrass [8, 9] [%]
Cc1ccc(Oc2nc3cc(Br)ccc3o2)cc1-c1c(O)cnn(C)c1=O [Compound 2-183] | 50 | 95 | 98 | 30 | 90 | 0 | 98 | 90 | 95 | 98 | – | – | – | – | – | – | – | – | – | –
CC(=O)Oc1c(C)nn(C)c(=O)c1-c1cc(N(C)c2ncc(C(F)(F)F)cc2Cl)ccc1C [1-145] | 40 | 40 | 70 | 35 | 50 | 0 | 20 | 0 | 93 | 90 | – | – | – | – | – | – | – | – | – | –
Cc1ccc(Oc2cnc3cc(Cl)ccc3n2)cc1-c1c(OC(=O)Cc2ccccc2)c(C)nn(C)c1=O [Compound 3-47] | – | – | – | – | – | – | – | – | – | – | 40 | 99 | 100 | 20 | 98 | 0 | 99 | 30 | 100 | 99
CC(=O)Oc1c(C)nn(C)c(=O)c1-c1cc(Oc2ccc(C(F)(F)F)cc2)ccc1C [Compound 2-118] | 20 | 88 | 60 | 10 | 50 | 0 | 70 | 80 | 85 | 40 | – | – | – | – | – | – | – | – | – | –
C#CCOc1c(C)nn(C)c(=O)c1-c1cc(Oc2cnc3cc(Cl)ccc3n2)ccc1C [Compound 3-77] | – | – | – | – | – | – | – | – | – | – | 30 | 60 | 100 | 0 | 25 | 0 | 85 | 0 | 100 | 90
Cc1ccc(Oc2nc3cc(Cl)ccc3o2)cc1-c1c(O)c(C)nn(C)c1=O [Compound 2-105] | 65 | 75 | 90 | 25 | 25 | 0 | 80 | 35 | 90 | 95 | – | – | – | – | – | – | – | – | – | –
CCOC(=O)Oc1c(C)nn(C)c(=O)c1-c1cc(Oc2cnc3cc(Cl)ccc3n2)ccc1C [Compound 3-35] | 60 | 100 | 99 | 25 | 100 | 10 | 99 | 95 | 100 | 99 | – | – | – | – | – | – | – | – | – | –
CC(=O)Oc1c(C)nn(C)c(=O)c1-c1cc(Oc2ncc3cc(Br)ccc3n2)ccc1C [Compound 2-123] | 0 | 10 | 83 | 0 | 90 | 0 | 0 | 50 | 90 | 10 | – | – | – | – | – | – | – | – | – | –
Cc1ccc(Oc2nc3ccc(Cl)cc3o2)cc1-c1c(O)cnn(CC2CC2)c1=O [Compound 2-186] | 98 | 25 | 99 | 15 | 0 | 0 | 0 | 0 | 90 | 99 | – | – | – | – | – | – | – | – | – | –
CCS(=O)(=O)Oc1c(C)nn(C)c(=O)c1-c1cc(Oc2cnc3cc(Cl)ccc3n2)ccc1C [Compound 3-68] | – | – | – | – | – | – | – | – | – | – | 20 | 90 | 100 | 0 | 30 | 0 | 83 | 0 | 100 | 95
CC(=O)Oc1c(C)nn(C)c(=O)c1-c1cc(Oc2nccc(C(F)(F)F)c2Cl)ccc1C [Compound 2-131] | 40 | 50 | 98 | 10 | 45 | 10 | 78 | 10 | 85 | 65 | – | – | – | – | – | – | – | – | – | –
Cc1ccc(Oc2cnc3cc(Cl)ccc3n2)cc1-c1c(OCC#N)c(C)nn(C)c1=O [Compound 3-78] | – | – | – | – | – | – | – | – | – | – | 0 | 40 | 98 | 0 | 0 | 0 | 10 | 0 | 99 | 93
CCc1nn(C)c(=O)c(-c2cc(Oc3ncc(C(F)(F)F)cc3Cl)ccc2C)c1OC(C)OC(=O)OC (stereo not shown) [1-139] | 50 | 88 | 60 | 15 | 45 | 0 | 98 | 20 | 100 | 80 | – | – | – | – | – | – | – | – | – | –
CC(=O)Oc1c(C)nn(C)c(=O)c1-c1cc(Oc2nc3ccc(C)cc3s2)ccc1C [Compound 2-152] | 0 | 0 | 85 | 0 | 75 | 0 | 35 | 78 | 85 | 20 | – | – | – | – | – | – | – | – | – | –
COc1ccc(Oc2ncc(C(F)(F)F)cc2Cl)cc1-c1c(O)c(C)nn(C)c1=O [1-10] | 60 | 20 | 90 | 20 | 0 | 0 | 0 | 0 | 70 | 90 | – | – | – | – | – | – | – | – | – | –
CC(=O)Oc1c(C)nn(C)c(=O)c1-c1cc(Oc2ncc(Cl)cc2Cl)ccc1C [Compound 2-128] | 75 | 88 | 75 | 0 | 60 | 0 | 93 | 45 | 85 | 83 | – | – | – | – | – | – | – | – | – | –

— patent US10870638B2, “Pyridazinone compound or its salt, and herbicide containing it” (ISHIHARA SANGYO KAISHA, LTD., priority 2016, dated 2020)
